According to ChEMBL document CHEMBL1149799, “Bioactive peroxides as potential therapeutic agents” (Eur J Med Chem, 2008):
pIC50: −log10 of the molar value. Converted amounts (≈) assume the structure as drawn.

Key:
[1] = Inhibition of human SKW3 cells adhesion to soluble ICAM1; format: functional, cell-based
[2] = system: P388; test: Cytotoxicity against mouse P388 cells; format: functional, cell-based; conditions: Mus musculus, P388; read-out: ED50 (the source's name)
[3] = Cytotoxicity against human KB16 cells; format: functional, cell-based
[4] = system: EL4; test: Cytotoxicity against […] cells; format: functional, cell-based; conditions: Mus musculus
[5] = molecular target: Protein kinase C epsilon type (Homo sapiens, UniProt Q02156); test: Antagonist activity at protein kinase C epsilon; format: functional
Protein kinase C epsilon type, sequence (Q02156 whole entry): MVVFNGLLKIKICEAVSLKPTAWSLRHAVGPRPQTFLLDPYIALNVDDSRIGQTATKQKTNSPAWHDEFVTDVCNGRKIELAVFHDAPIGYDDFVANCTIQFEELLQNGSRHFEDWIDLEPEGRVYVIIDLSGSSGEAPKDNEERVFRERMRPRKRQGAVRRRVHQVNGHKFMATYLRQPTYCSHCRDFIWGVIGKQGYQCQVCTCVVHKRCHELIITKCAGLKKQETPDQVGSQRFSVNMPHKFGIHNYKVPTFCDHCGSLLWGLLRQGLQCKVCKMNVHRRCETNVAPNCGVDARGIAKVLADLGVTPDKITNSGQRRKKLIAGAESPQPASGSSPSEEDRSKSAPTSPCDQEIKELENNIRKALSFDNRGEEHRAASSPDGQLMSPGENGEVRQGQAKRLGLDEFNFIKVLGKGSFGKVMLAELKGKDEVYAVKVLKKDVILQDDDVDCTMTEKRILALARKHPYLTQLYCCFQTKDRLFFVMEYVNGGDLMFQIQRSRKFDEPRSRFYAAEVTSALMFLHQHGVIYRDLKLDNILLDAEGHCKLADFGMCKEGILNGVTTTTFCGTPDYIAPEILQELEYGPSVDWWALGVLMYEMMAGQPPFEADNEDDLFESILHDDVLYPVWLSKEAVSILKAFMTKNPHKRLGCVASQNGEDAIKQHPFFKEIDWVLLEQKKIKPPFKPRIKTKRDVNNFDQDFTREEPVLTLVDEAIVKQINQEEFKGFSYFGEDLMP

[6] = molecular target: T1, Protein kinase C gamma type (Homo sapiens, UniProt P05129); test: Antagonist activity at protein kinase C gamma; format: functional
[7] = molecular target: Protein kinase C zeta type (Homo sapiens, UniProt Q05513); test: Antagonist activity at protein kinase C zeta; format: functional
Protein kinase C zeta type, sequence (Q05513 whole entry): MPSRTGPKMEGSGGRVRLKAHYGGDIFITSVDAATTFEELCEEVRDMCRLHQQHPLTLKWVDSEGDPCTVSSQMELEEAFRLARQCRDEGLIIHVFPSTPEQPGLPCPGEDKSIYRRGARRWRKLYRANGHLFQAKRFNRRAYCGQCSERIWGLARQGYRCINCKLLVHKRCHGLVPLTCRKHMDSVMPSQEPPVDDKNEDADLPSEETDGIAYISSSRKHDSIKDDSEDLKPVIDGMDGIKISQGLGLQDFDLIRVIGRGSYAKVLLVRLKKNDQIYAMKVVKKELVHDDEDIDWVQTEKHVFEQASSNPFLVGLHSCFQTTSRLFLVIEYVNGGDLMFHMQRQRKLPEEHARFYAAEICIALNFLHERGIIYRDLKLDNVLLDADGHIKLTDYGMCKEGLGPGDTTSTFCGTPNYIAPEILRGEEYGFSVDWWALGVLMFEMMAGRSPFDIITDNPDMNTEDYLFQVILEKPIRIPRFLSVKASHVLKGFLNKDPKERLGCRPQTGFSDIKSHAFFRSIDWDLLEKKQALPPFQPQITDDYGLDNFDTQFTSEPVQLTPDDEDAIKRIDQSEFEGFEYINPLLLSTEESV

[8] = system: P388; test: Cytotoxicity against mouse P388 cells at 0.05 ug/ml; format: functional
[9] = molecular target: Prostaglandin G/H synthase 1 (Homo sapiens, UniProt P23219); test: Inhibition of cyclooxygenase-1
Prostaglandin G/H synthase 1, sequence (P23219 whole entry): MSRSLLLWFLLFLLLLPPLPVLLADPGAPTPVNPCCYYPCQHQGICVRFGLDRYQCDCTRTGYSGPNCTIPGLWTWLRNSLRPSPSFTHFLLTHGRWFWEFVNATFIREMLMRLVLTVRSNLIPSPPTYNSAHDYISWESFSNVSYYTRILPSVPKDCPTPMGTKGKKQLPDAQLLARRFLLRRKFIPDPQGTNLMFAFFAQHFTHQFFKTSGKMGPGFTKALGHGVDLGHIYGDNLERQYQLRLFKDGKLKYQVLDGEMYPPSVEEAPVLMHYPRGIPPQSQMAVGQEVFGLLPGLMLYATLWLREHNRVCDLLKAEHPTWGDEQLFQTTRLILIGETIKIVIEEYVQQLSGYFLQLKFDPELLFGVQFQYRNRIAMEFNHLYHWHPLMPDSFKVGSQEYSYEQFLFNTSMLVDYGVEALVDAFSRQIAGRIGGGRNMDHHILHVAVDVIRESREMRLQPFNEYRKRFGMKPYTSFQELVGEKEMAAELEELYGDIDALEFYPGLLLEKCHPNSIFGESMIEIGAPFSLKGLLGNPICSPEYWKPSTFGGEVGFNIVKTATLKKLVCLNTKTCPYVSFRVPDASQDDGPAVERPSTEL

[10] = molecular target: Prostaglandin G/H synthase 2 (Homo sapiens, UniProt P35354); test: Inhibition of cyclooxygenase-2
Prostaglandin G/H synthase 2, sequence (P35354 whole entry): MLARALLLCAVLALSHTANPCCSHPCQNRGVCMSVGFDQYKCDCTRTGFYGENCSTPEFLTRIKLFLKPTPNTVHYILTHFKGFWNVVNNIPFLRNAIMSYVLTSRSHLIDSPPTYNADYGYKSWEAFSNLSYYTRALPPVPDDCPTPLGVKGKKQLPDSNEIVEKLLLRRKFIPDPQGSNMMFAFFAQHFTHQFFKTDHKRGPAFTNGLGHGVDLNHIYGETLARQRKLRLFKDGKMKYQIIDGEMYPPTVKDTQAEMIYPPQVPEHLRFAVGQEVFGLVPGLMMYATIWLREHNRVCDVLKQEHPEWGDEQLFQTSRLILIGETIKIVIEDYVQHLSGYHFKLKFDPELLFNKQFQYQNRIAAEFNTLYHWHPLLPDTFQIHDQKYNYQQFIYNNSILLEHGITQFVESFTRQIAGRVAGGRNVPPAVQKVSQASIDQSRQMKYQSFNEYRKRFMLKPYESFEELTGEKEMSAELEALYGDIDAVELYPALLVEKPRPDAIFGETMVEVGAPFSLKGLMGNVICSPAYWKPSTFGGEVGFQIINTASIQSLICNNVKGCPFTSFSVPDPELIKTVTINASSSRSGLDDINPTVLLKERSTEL

[11] = system: Candida albicans; test: Antifungal activity against Candida albicans; format: functional
[12] = system: Aspergillus fumigatus; test: Antifungal activity against Aspergillus fumigatus; format: functional
[13] = Cytotoxicity against human Hepa59T/VGH cells; format: functional; conditions: HEPA 59T/VGH, read-out: ED50 (the source's name)
[14] = Cytotoxicity against human Fem-X cells; format: functional, cell-based
[15] = system: PBMC; test: Cytotoxicity against human PBMC cells; format: cell-based
[16] = system: HeLa; test: Cytotoxicity against human HeLa cells; format: functional, cell-based
[17] = system: K562; test: Cytotoxicity against human K562 cells; format: functional, cell-based
[18] = system: PBMC; test: Cytotoxicity against human PHA-activated PBMC cells; format: cell-based
[19] = molecular target: Protein kinase C alpha type (Homo sapiens) (UniProt P17252); test: Agonist activity at protein kinase C alpha at 50 pg/mL; format: functional
[20] = molecular target: Protein kinase C beta type (Homo sapiens) (UniProt P05771); test: Agonist activity at protein kinase C beta-1 at 50 pg/mL; format: functional
Protein kinase C beta type (Homo sapiens), sequence (P05771 2-671 limits assumed): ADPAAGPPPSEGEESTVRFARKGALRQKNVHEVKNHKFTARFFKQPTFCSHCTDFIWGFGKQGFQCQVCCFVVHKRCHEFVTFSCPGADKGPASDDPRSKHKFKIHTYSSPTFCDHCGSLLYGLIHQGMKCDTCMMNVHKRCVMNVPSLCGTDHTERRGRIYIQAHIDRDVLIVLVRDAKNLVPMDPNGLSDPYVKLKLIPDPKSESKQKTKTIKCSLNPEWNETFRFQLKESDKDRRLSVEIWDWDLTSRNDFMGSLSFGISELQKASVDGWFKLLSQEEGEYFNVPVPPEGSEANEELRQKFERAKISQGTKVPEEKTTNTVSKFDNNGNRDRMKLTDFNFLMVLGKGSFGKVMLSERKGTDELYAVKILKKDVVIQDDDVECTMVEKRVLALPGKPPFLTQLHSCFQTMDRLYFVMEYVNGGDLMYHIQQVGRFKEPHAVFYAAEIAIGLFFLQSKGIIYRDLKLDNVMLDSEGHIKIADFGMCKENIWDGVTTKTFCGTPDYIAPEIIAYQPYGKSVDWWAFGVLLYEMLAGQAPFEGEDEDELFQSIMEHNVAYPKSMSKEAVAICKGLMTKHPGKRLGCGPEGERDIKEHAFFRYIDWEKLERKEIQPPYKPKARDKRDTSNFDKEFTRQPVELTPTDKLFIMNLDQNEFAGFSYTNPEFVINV

[21] = molecular target: Protein kinase C beta type (Homo sapiens) (UniProt P05771); test: Agonist activity at protein kinase C beta2 at 50 pg/mL; format: functional
[22] = molecular target: Protein kinase C delta type (Homo sapiens) (UniProt Q05655); test: Agonist activity at protein kinase C delta at 50 pg/mL; format: functional
Protein kinase C delta type (Homo sapiens), sequence (Q05655 whole entry, looked up): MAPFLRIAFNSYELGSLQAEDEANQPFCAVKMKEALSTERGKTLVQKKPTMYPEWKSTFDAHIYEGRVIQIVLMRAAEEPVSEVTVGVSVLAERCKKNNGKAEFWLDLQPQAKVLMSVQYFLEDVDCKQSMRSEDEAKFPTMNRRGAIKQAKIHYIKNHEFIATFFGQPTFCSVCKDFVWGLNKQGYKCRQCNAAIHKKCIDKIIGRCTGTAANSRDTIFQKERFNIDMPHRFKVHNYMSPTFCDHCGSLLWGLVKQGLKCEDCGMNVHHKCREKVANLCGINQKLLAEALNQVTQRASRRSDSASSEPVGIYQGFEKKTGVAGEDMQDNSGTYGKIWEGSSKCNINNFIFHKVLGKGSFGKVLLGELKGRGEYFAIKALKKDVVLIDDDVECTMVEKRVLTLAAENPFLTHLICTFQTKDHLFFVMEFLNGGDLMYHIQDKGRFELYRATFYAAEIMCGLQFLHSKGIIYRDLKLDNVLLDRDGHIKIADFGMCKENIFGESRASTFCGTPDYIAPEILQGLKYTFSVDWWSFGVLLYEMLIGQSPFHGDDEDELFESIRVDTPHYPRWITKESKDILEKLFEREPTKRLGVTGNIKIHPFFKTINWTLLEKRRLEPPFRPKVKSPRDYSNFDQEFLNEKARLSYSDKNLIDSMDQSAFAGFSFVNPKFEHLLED

[23] = molecular target: Protein kinase C epsilon type (Homo sapiens) (UniProt Q02156); test: Agonist activity at protein kinase C epsilon at 50 pg/mL; format: functional
Protein kinase C epsilon type (Homo sapiens), sequence (Q02156 whole entry): as the sequence (Q02156 whole entry) above

[24] = molecular target: T1, Protein kinase C gamma type; test: Agonist activity at protein kinase C gamma at 50 pg/mL; format: functional

Cc1ccc2c(c1O)C(=O)c1c(cc(O)c(C(=O)O)c1C)[C@]2(C)OO[C@@]1(C)c2cc(O[C@H]3O[C@@H](CO)[C@@H](O)[C@@H](O[C@@H]4O[C@H](CO)[C@H](O)[C@H](O)[C@H]4O)[C@@H]3O)c(C(=O)O)c(C)c2C(=O)c2c1ccc(C)c2O [ADXANTHROMYCIN B]
IC50 [1]: 25 µg/mL (≈ 25.5 µM)

CCCCCCCCCCCCCCCC[C@@]1(OC)C=C[C@@H](CC(=O)OC)OO1 [CHONDRILLIN]
EC50 [2]: > 10 µg/mL | IC50 [3]: 0.74 µg/mL (≈ 1.79 µM) | IC50 [4]: 0.4 µg/mL (≈ 0.969 µM) | pIC50 [5]: 4.14 | pIC50 [6]: < 3.44 | pIC50 [7]: 3.98 | inhibition at 0.05 µg/mL [8]: 50%

C=C[C@@H]1[C@@H](O)C[C@@H]2[C@]3(CC[C@]4(C)[C@@H]([C@H](C)CCC(OO)C(=C)C)CC[C@@]24C)C[C@]13CCC(=O)OC (stereo not given in full)
IC50 [9]: 43.7 µg | IC50 [10]: 4.7 µg

CC/C=C/C(CC)C/C=C/[C@@]1(CC)C[C@H](CC)[C@@H](CC(=O)O)OO1 (stereo not given in full)
MIC [11]: 5 µg/mL (≈ 14.8 µM) | IC90 [12]: 5.6 µg/mL (≈ 16.5 µM)

CC(C)[C@]12C=C3[C@](C)(O)CC[C@]3(OO1)[C@@H](C)CC2 [PEROXYGIBBEROL]
EC50 [13]: 8.2 µg/mL (≈ 32.5 µM)

Cc1ccc2c(c1O)C(=O)c1c(cc(O)c(C(=O)O)c1C)[C@]2(C)OO[C@@]1(C)c2cc(O[C@H]3O[C@@H](CO)[C@@H](O)[C@@H](O)[C@@H]3O)c(C(=O)O)c(C)c2C(=O)c2c1ccc(C)c2O [ADXANTHROMYCIN A]
IC50 [1]: 18.8 µg/mL (≈ 23 µM)

C=C1C(=O)O[C@H]2C1C[C@@H](OC(C)=O)[C@@](C)(O)[C@@]13C=C[C@@](C)(OO1)[C@H]23 (stereo not given in full) [APRESSIN]
IC50 [14]: 5.27 µg/mL (≈ 15.7 µM) | IC50 [15]: 15.9 µg/mL (≈ 47.2 µM) | IC50 [16]: 7.36 µg/mL (≈ 21.9 µM) | IC50 [17]: 4.44 µg/mL (≈ 13.2 µM) | IC50 [18]: 8.78 µg/mL (≈ 26.1 µM)

CC(CCCCCCCCc1ccccc1)C[C@]1(C)C[C@]2(C)OC(=O)C[C@@H]2OO1 (stereo not given in full)
Activity [19]: 19% | Activity [20]: 13% | Activity [21]: 27% | Activity [22]: 9% | Activity [23]: 38% | Activity [24]: 9%
